US20230119239A1, “OROMUCOSAL FILM COMPOSITIONS” (ReForm Therapeutics Ltd., priority 2021, published 2023)

Assay: Ex vivo permeation of liraglutide solution through porcine sublingual mucosa, Franz diffusion cell
Type: in vitro ADME
Conditions: liraglutide 3 mg/mL + Transcutol® HP (10% solution) compared with liraglutide solution alone; 120 minutes; receptor phosphate buffer pH 8.5; FIG. 4
Method: The solution of liraglutide, and solution of liraglutide and permeation enhancer was tested. […] Samples were taken at 0 and 120 minutes to determinate the presence of liraglutide in the receptor chamber. The concentration level of liraglutide was determined using HPLC/MS method.

permeation of liraglutide through sublingual mucosa ex vivo (in words): significantly increased permeation
Structure (SMILES): CCCCCCCCCCCCCCCC(=O)N[C@@H](CCC(=O)NCCCC[C@H](NC(=O)[C@H](C)NC(=O)[C@H](C)NC(=O)[C@H](CCC(N)=O)NC(=O)CNC(=O)[C@H](CCC(=O)O)NC(=O)[C@H](CC(C)C)NC(=O)[C@H](Cc1ccc(O)cc1)NC(=O)[C@H](CO)NC(=O)[C@H](CO)NC(=O)[C@@H](NC(=O)[C@H](CC(=O)O)NC(=O)[C@H](CO)NC(=O)[C@@H](NC(=O)[C@H](Cc1ccccc1)NC(=O)[C@@H](NC(=O)CNC(=O)[C@H](CCC(=O)O)NC(=O)[C@H](C)NC(=O)[C@@H](N)Cc1cnc[nH]1)[C@@H](C)O)[C@@H](C)O)C(C)C)C(=O)N[C@@H](CCC(=O)O)C(=O)N[C@@H](Cc1ccccc1)C(=O)N[C@H](C(=O)N[C@@H](C)C(=O)N[C@@H](Cc1c[nH]c2ccccc12)C(=O)N[C@@H](CC(C)C)C(=O)N[C@H](C(=O)N[C@@H](CCCNC(=N)N)C(=O)NCC(=O)N[C@@H](CCCNC(=N)N)C(=O)NCC(=O)O)C(C)C)[C@@H](C)CC)C(=O)O [liraglutide]
